Source: patent publication US20240093198A1, “TGF-BETA THERAPEUTICS FOR AGE DISEASE” (GMP BIOTECHNOLOGY LIMITED, priority 2021, published 2024)
≈ marks a conversion by molar mass, not a printed value.

What was measured:
[1] = test system: SARS-COV-2; conditions: from Wang M et al., Cell Res. 2020; cited from earlier work
[2] = test system: SARS-COV-2 USA_WA1/2020; conditions: Vero 76 cells
[3] = test system: COVID-19
[4] = in vitro; conditions: African green monkey
[5] = test system: SARS-COV-2 USA_WA1/2020; assay: microbe, parasite or virus in culture; conditions: Severe acute respiratory syndrome coronavirus 2, Vero 76, read-out: EC50: 50% effective antiviral concentration
[6] = by day 28, p<0.0001, not with SOC alone

SMILES | CC50 [1] [µM] | SI = CC50/EC50 (Safety Index) [2] | Safety profile ([3]; 80 patients on Artemisinin) | WHO severity scale ([3]; Day 4 and Day 5, p=0.0045 and p=0.0370) | Recovery of patients with mild-moderate COVID-19 across symptoms (fever, sore throat, dry cough, ache) ([3]; added to the SOC) | Decline in body temperature in comparison to SOC arm ([3]; by day 2) | Improvement in respiratory rate in comparison to SOC arm ([3]; by day 5) | Improvement in mean SpO2 level in comparison to SOC arm ([3]; by day 28 (end of study), p=0.029) | O2 sat [3, 6] | respiratory rate [3, 6] | Artemisinin-related adverse events (the only ones) ([3]; human, in vivo) | Changes in biochemistry or hematology parameters ([3]; human, in vivo) | Efficacy in words ([3]; human, in vivo) | Safety and tolerability ([3]; human, in vivo) | Reduction of WHO score on the first few doses ([3]; p=0.0043, n=56 PulmoHeal+SOC vs n=25 SOC) | Long term lung functions (FIG. 4) ([3]; patients with confirmed SARS-CoV-2 infection) | CC50 [4] [µg/mL] | EC50 [5] [µg/mL]
CCC(CC)COC(=O)[C@H](C)N[P@](=O)(OC[C@H]1O[C@@](C#N)(c2ccc3c(N)ncnn23)[C@H](O)[C@@H]1O)Oc1ccccc1 [Remdesivir] | > 100 | – | – | – | – | – | – | – | – | – | – | – | – | – | – | – | – | –
C[C@@H]1CC[C@H]2[C@@H](C)C(=O)O[C@@H]3O[C@@]4(C)CC[C@@H]1[C@]32OO4 [Artemisinin] | – | 140 | very favorable safety profile | significant improvement over SOC | accelerated the recovery | faster and higher | faster and higher | significantly higher | fully recovered | fully recovered | transient mild rash and mild hypertension | no clinically significant changes | effective in treating subjects with mild and moderate COVID-19 | safe and well-tolerated | Almost all of WHO-4 patients achieved a reduction WHO-3 | restored long term lung functions | 61 (≈ 216 µM) | 0.45 (≈ 1.59 µM)
